Laboratory results from patent US9802912B2, “Cyclic ortho ester fuel additive” (AIRBUS OPERATIONS LIMITED, priority 2013, dated 2017).

Experiments:
[1] = 1H NMR kinetics of acid catalysed hydrolysis of TMOA in AcOH/AcONa buffers; assay type: physicochemical
Procedure: Five buffers with constant acetic acid (AcOH) concentration and different H^+ concentrations were made by varying the amount of sodium acetate (AcONa) added (see Table 1). As the ionic concentration of the solution has an impact on the rate constant of hydrolysis, sodium chloride was added to keep the ionic strength constant in all 5 buffers.
The reaction samples were prepared directly in 5 mm NMR tube by adding 15 μL of TMOA in 500 μL of acetone-d6. To start the reaction 100 μL of acetic acid/sodium acetate aqueous buffer was added. All chemicals were purchased at the highest level of purity from Sigma Aldrich. Acetone-D6 and TMOA were dried before each experiment by distilling from 3 Å molecular sieve under nitrogen. Sodium chloride and sodium acetate were dried by heating them at T=100° C. for 4 hours under vacuum.
A 300 MHz NMR spectrometer was used to follow the concentration of TMOA with time by acquiring nine sequential ^1H NMR spectra every 10 min (actual delay time=10.38 min). Presaturation solvent suppression technique was used to obscure the H2O signal. An external reference was used by adding to the NMR tube a sealed capillary tube with 3-(trimethylsilyl)-1-propanesulfonic acid sodium salt dissolved in D2O (concentration=0.1966 M).
The TMOA ^1H NMR spectrum consists of two singlets resonating at 3.15 and 1.33 ppm, assigned to the —OCH3 and —CH3 residues, respectively (integrating 3:1—FIG. 7). The relative peak area (RPA—proportional to concentration) was measured by comparing the —CH3 resonance with that of the external reference.
The approach adopted for determining kH+ and kHA, was to exploit the constancy of Ka (=1.75×10^−5 mol/L) whilst varying the numerators (i.e., [A^−] 2→0.1 and pH 5.07→3.74) and maintaining [HA] constant (i.e., 0.192 mol/L). As the overall rate of reaction (equation III) is a summation of both processes described by kH+ and kHA, the rate constant kobs is therefore proportional to the concentration of both associated and dissociated acids (equation IV). rate=kobs[R—C(OR)3] (III) kobs=kH+[H^+]+kHA[HA] (IV)
Given that [HA] is constant, expression IV becomes equivalent to that of a straight line and kH+ and kHA may be determined by plotting kobs vs [H^+]. To obtain kobs however, the rate equation integrated over time (Eq. V) must be used. In[R—C(OR)3]t—In[R—C(OR)3]0=−kobst (V)
^1H NMR spectroscopy is the technique of choice when studying processes which occur on this timescale. Our choice of HA was acetic acid (AcOH), and five buffered solutions with different H^+ concentration were prepared by varying the amount of sodium acetate (AcONa=A^−). For the study, we switched focus from the aldehyde derivative TEOF (5, Scheme 1) used for the proof of concept study to the faster reacting keto-derivative trimethyl orthoacetate (TMOA) 8, Scheme 2 where R=—CH3) for reasons of atom economy (20% lighter).
[H^+] may be plotted (FIG. 5) and a straight line fitted (y=35.464×+1.6×10^−3; R^2=0.993) from which values for the gradient of the slope and y-intercept afford kH+=35.5 min^−1 and, kHA=7.8×10^−3 min^−1 respectively. It is clear that the pathway catalysed by dissociated acid H^+ (specific acid catalysis—scheme 2) is approximately 4500 times faster than the pathway catalysed by undissociated AcOH, within the pH range studied here (3.7→5.0).

[2] = GC measurement of hydrolysis of triethyl orthoformate by water in Jet A-1; assay type: physicochemical
Procedure: The analyses were performed using an Agilent 5890 gas chromatograph equipped with a flame ionisation detector. The GC column used was of fused silica, HP-5MS, 30 m by 0.25 mm, with a helium flow rate of 1.5 mL/min. The temperature for the detector and injector was fixed at 250° C. The oven temperature used for the analysis was 80° C. for 4 minutes, then it was increased at 20° C./min to 240° C. and held for 2 minutes.
Jet A-1, obtained by Air BP (Batch number BIS/HAL/12/035K), was dried by storing it over 3 Å molecular sieve for at least 24 hours. Standards with different water concentrations were prepared by adding measured volumes of distilled water by SGE μL syringes to 20 ml of anhydrous Jet A-1, taking extra care to inject the water in the middle of the solvent. Each standard was prepared just before use and ultrasonicated for 5 minutes to ensure an equal distribution of water.
A reactant solution was prepared to enable a simple, one-step addition of all the necessary chemicals. […]
For each water standard, the relative peak area (RPA) of ethanol was calculated by dividing the ethanol peak area by the internal standard peak area. […]

| SMILES | Kobs ([1]; [AcOH]/[AcONa] 0.486, [H+] 8.51 × 10^−6 mol/L) | Kobs ([1]; [AcOH]/[AcONa] 1, [H+] 1.75 × 10^−5 mol/L) | Kobs ([1]; [AcOH]/[AcONa] 2.918, [H+] 5.11 × 10^−5 mol/L) | Kobs ([1]; [AcOH]/[AcONa] 4, [H+] 7.00 × 10^−5 mol/L) | Kobs ([1]; [AcOH]/[AcONa] 10.378, [H+] 1.82 × 10^−4 mol/L) | kHA (general acid catalysis, undissociated AcOH) ([1]; from y-intercept of kobs v. [H+], [HA] 0.192 mol/L) | kH+ (specific acid catalysis) ([1]; gradient of kobs v. [H+], pH 3.7-5.0) | rate of pathway catalysed by H+ relative to pathway catalysed by undissociated AcOH ([1]; pH 3.7-5.0) | reaction with water, completion ([2]; Jet A-1, methane sulfonic acid, 30 minutes) | reaction with water, complete ([2]; Jet A-1, no added acid catalyst, after 2 days) |
| --- | --- | --- | --- | --- | --- | --- | --- | --- | --- | --- |
| COC(C)(OC)OC [TMOA, trimethyl orthoacetate] | 0.0016 min⁻¹ | 0.0024 min⁻¹ | 0.0036 min⁻¹ | 0.0042 min⁻¹ | 0.008 min⁻¹ | 0.0078 min⁻¹ | 35.5 min⁻¹ | approximately 4500 times | – | – |
| CCOC(OCC)OCC [compound 5, triethyl orthoformate] | – | – | – | – | – | – | – | – | 100% | 60-75% |
